The text below walks through data of article PMC9031249, “New 3-Acyl Tetramic Acid Derivatives from the Deep-Sea-Derived Fungus Lecanicillium fusisporum” (Marine Drugs, 2022).

One test relates to NF-κB. Description: NF-κB luciferase reporter assay in LPS-induced RAW264.7 cells. In kind it is cell-based. The conditions noted are these: LPS induced RAW264.7 cells stably transfected with NF-κB luciferase reporter; treated 4 h, then LPS 100 ng/mL for 6 h; read-out: EC50, inhibition of NF-κB production. As to the method: The effects of 1–8 on LPS-induced NF-κB luciferase activity were detected by luciferase reporter gene assay as described earlier. Briefly, RAW264.7 cells, stably transfected with a NF-κB luciferase reporter construct, were treated with 1–8 (30 μM) and BAY11-7082 (NF-κB inhibitor, 5 μM) for 4 h, followed by stimulation with LPS (100 ng/mL^−1) for 6 h. The luciferase activity was determined using the luciferase assay system (Promega, Madison, WI, USA). The dose-dependent effects of 1–8 and BAY11-7082 on LPS induced NF-κB luciferase activity were detected by the same assay.
A word on the EC50: it is the midpoint of the concentration-response curve. Take `Cc1ccc(S(=O)(=O)/C=C/C#N)cc1` [BAY11-7082, reference compound]: the concentration for a half-maximal effect (EC50) was 1.5 ± 1.4 µM.
On the same count and under the same terms, the figure for `CC(C)=C1NC(=O)C(O)(C2C=CCC(C)O2)C1=O` (stereo not drawn) [Compound 2, Lecanicilliumin B] is 25.8 ± 1.3 µM.
Same read-out and setting: with `COC1CC(C2(O)C(=O)NC(=C(C)C)C2=O)CC(C)O1` (stereo not drawn) [Compound 6, Lecanicilliumin F] the figure was 24.7 ± 1.19 µM.

Staying with this test, now noted: Mus musculus, RAW264.7, LPS induced RAW264.7 cells stably transfected with NF-κB luciferase reporter; treated 4 h, then LPS 100 ng/mL for 6 h; read-out: EC50, inhibition of NF-κB production.
`CC(C)=C1NC(=O)C(O)(C2C=CCC(C)O2)C1=O` (stereo not drawn) [Compound 1, Lecanicilliumin A]: the EC50 is 18.5 ± 1.21 µM.
Still for that read-out and setting: with `COC1CC(C2(O)C(=O)NC(=C(C)C)C2=O)CC(C)O1` (stereo not drawn) [Compound 5, Lecanicilliumin E] the figure was 23.1 ± 1.26 µM; with `CC(C)=C1NC(=O)C(O)(CC=CCC(C)O)C1=O` (stereo not drawn) [Compound 7, Lecanicilliumin G], 26.5 ± 1.12 µM.

A further test concerns NO production in LPS-induced RAW264.7 cells.
Assay: not given
Details: method as in PMID 24016057, PMID 27976895. The conditions noted are these: read-out: EC50, inhibition of NO production; cited from earlier work.
Turning to `C/C=C/C1=CC=C/C(=C2\C(=O)CNC2=O)O1` [Vermelhotin], the EC50 was 5.35 µM.
On to pseurotin A3, for which the EC50 is 34.5 µM.
For pseurotin G, the half-maximal effective concentration (EC50) is 57 µM.
